# Tested on: lipid peroxidation products
# Assay: Thioglycollate/Zymosan-induced peritonitis model: lipid oxidation products in peritoneal lavage by electrospray ionization tandem mass spectrometry
# Type: in vivo, mice
# Method: Thioglycollate/Zymosan—Induced Peritonitis Model: Wild-type mice were administered either 500 mg/kg body weight of disodium disuccinate astaxanthin (ddAst/Cardax™) in an oil emulsion vehicle, or normal saline (NS) as a negative control, by oral gavage at 24 hours intervals beginning 7 days prior to the induction of peritonitis. Peritonitis was induced experimentally as follows: mice were injected intraperitoneally with 1 ml of 4% by weight thioglycollate (Tg) broth, to induce the recruitment of proinflammatory cells to the peritoneum. Either 16 hours or 72 hours after recruitment, approximately half of the mice were injected intraperitoneally with 250 mg/kg body weight of zymosan (Z) for a further 4 hours. The mice not receiving zymosan underwent no further treatment. Peritoneal lavage was performed in control animals or animals treated with (ddAst) 16 hours post Tg injection, or 20 h following the combination of both Tg injection (16 hours) followed by Z injection (4 hours), as indicated (Tg/Z). Peritoneal lavages were performed with phosphate-buffered saline containing antioxidant (0.1 mM butylated hydroxytoluene (BHT)) and 2 mM of the metal chelator diethylenetriamine pentaacetic acid (DTPA) according to established practices in the art. The lavage suspensions were transferred to screw-capped tubes under an argon atmosphere, and immediately centrifuged at 1000 rpm in a table top microcentrifuge for 10 min at 4° C. to remove whole cells and debris. All analyses of lipid peroxidation products was performed on cell-free lavage supernatants. Cell pellets were resuspended in phosphate-buffered saline containing 0.1 mM BHT and 0.1 mM DTPA, and differential cell counts (macrophages, monocytes, eosinophils, lymphocytes, neutrophils, and erythrocytes) were performed on cytospun preparations of isolated cells according to established procedures in the art.
# Electrospray ionization tandem mass spectrometry was used to simultaneously quantify individual molecular species of HETEs, HPETEs, the prostaglandin PGF2α, F2-isoprostanoids, hydroxy- and hydroperoxy-octadecadienoic acids (H(P)ODEs), and their precursors, arachidonic acid (AA) and linoleic acid (LA). Additionally, the molar ratios of o-tyrosine (oY/F). were measured.
# [1] = 72 Hour Thioglycollate/4 Hour Zymosan, 500 mg/kg oral gavage, P-VALUE 0.772 NP
# [2] = 72 Hour Thioglycollate/4 Hour Zymosan, 500 mg/kg oral gavage, P-VALUE 0.862 NP
# [3] = 72 Hour Thioglycollate/4 Hour Zymosan
# [4] = 72 Hour Thioglycollate, 500 mg/kg oral gavage, P-VALUE 0.117
# [5] = 72 Hour Thioglycollate, 500 mg/kg oral gavage, P-VALUE 0.275
# [6] = 72 Hour Thioglycollate, 500 mg/kg oral gavage, P-VALUE 0.325 NP
# [7] = 72 Hour Thioglycollate, 500 mg/kg oral gavage, P-VALUE 0.349
# [8] = 72 Hour Thioglycollate, 500 mg/kg oral gavage, P-VALUE 0.393
# [9] = 72 Hour Thioglycollate, 500 mg/kg oral gavage, P-VALUE 0.512
# [10] = 72 Hour Thioglycollate, 500 mg/kg oral gavage, P-VALUE 0.524 NP
# [11] = 72 Hour Thioglycollate, 500 mg/kg oral gavage, P-VALUE 0.542
# [12] = 72 Hour Thioglycollate, 500 mg/kg oral gavage, P-VALUE 0.603 NP
# [13] = 72 Hour Thioglycollate, 500 mg/kg oral gavage, P-VALUE 0.726
# [14] = 72 Hour Thioglycollate, 500 mg/kg oral gavage, P-VALUE 0.741
# [15] = 72 Hour Thioglycollate, 500 mg/kg oral gavage, P-VALUE 0.793
# [16] = 72 Hour Thioglycollate, 500 mg/kg oral gavage, P-VALUE 0.862 NP
# [17] = 72 Hour Thioglycollate, 500 mg/kg oral gavage, P-VALUE 0.968
# [18] = 16 hours Tg/4 hour Z, 500 mg/kg oral gavage
# [19] = 16 hours Tg, 500 mg/kg oral gavage
# [20] = 72 hours Tg/4 hour Z, 500 mg/kg oral gavage
# [21] = Baseline, 500 mg/kg oral gavage, P-VALUE 0.081 NP
# [22] = Baseline, 500 mg/kg oral gavage, P-VALUE 0.158 NP
# [23] = Baseline, 500 mg/kg oral gavage, P-VALUE 0.271
# [24] = Baseline, 500 mg/kg oral gavage, P-VALUE 0.290
# [25] = Baseline, 500 mg/kg oral gavage, P-VALUE 0.298 NP
# [26] = Baseline, 500 mg/kg oral gavage, P-VALUE 0.302
# [27] = Baseline, 500 mg/kg oral gavage, P-VALUE 0.391
# [28] = Baseline, 500 mg/kg oral gavage, P-VALUE 0.418
# [29] = Baseline, 500 mg/kg oral gavage, P-VALUE 0.471 NP
# [30] = Baseline, 500 mg/kg oral gavage, P-VALUE 0.810 NP
# [31] = Baseline, 500 mg/kg oral gavage, P-VALUE 0.843
# [32] = Baseline, 500 mg/kg oral gavage, P-VALUE 0.920
# [33] = Baseline, 500 mg/kg oral gavage, P-VALUE 1.000 NP
structure (smiles),measurement,setting,value
"CC1=C(/C=C/C(C)=C/C=C/C(C)=C/C=C/C=C(C)/C=C/C=C(C)/C=C/C2=C(C)C(=O)C(OC(=O)CCC(=O)O)CC2(C)C)C(C)(C)CC(OC(=O)CCC(=O)O)C1=O (stereo not shown) [Cardax, disodium disuccinate astaxanthin]",9-HODE MEAN,[1],4.747 pmol
same,9-HODE MEDIAN,[1],3.683 pmol
same,11-HETE MEAN,[2],0.837 pmol
same,11-HETE MEDIAN,[2],0.703 pmol
same,"5-oxo-ETE (pmol), MEAN",[3],0.148 pmol
same,"5-oxo-ETE (ratio), MEAN",[3],0.063 ratio
same,"8-iso-F2a (pmol), MEAN",[3],0.057 pmol
same,"8-iso-F2a/AA (ratio), MEAN",[3],0.017 ratio
same,"5-oxo-ETE (pmol), MEDIAN",[3],0.116 pmol
same,"5-oxo-ETE (ratio), MEDIAN",[3],0.048 ratio
same,"8-iso-F2a (pmol), MEDIAN",[3],0.037 pmol
same,"8-iso-F2a/AA (ratio), MEDIAN",[3],0.011 ratio
same,9-HETE MEAN,[4],0.274 pmol
same,9-HETE MEDIAN,[4],0.299 pmol
same,9-HODE/LA (ratio) MEAN,[5],0.180
same,9-HODE/LA (ratio) MEDIAN,[5],0.109
same,5-HETE MEAN,[6],0.129 pmol
same,5-HETE MEDIAN,[6],0.082 pmol
same,9-HODE MEAN,[7],1.831 pmol
same,9-HODE MEDIAN,[7],1.585 pmol
same,13-HODE MEAN,[8],5.552 pmol
same,13-HODE MEDIAN,[8],5.520 pmol
same,11-HETE/AA (ratio) MEAN,[9],0.151
same,11-HETE/AA (ratio) MEDIAN,[9],0.132
same,Arachidonic Acid MEAN,[10],836.27 pmol
same,Arachidonic Acid MEDIAN,[10],758.43 pmol
same,PGF2a/AA (ratio) MEAN,[11],0.030
same,PGF2a/AA (ratio) MEDIAN,[11],0.033
same,Linoleic Acid MEAN,[12],14242 pmol
same,Linoleic Acid MEDIAN,[12],10076 pmol
same,Prostaglandin F2α (PGF2α) MEAN,[13],0.021 pmol
same,Prostaglandin F2α (PGF2α) MEDIAN,[13],0.018 pmol
same,11-HETE MEAN,[14],0.112 pmol
same,11-HETE MEDIAN,[14],0.100 pmol
same,5-HETE/AA (ratio) MEAN,[15],0.170
same,5-HETE/AA (ratio) MEDIAN,[15],0.082
same,9-HETE/AA (ratio) MEAN,[16],0.348
same,9-HETE/AA (ratio) MEDIAN,[16],0.241
same,13-HODE/AA (ratio) MEAN,[17],0.504
same,13-HODE/AA (ratio) MEDIAN,[17],0.363
same,"5-oxo-ETE (pmol), MEAN",72 Hour Thioglycollate,0.026 pmol
same,"5-oxo-ETE (ratio), MEAN",72 Hour Thioglycollate,0.021 ratio
same,"8-iso-F2a (pmol), MEAN",72 Hour Thioglycollate,0.010 pmol
same,"8-iso-F2a/AA (ratio), MEAN",72 Hour Thioglycollate,0.016 ratio
same,"5-oxo-ETE (pmol), MEDIAN",72 Hour Thioglycollate,0.000 pmol
same,"5-oxo-ETE (ratio), MEDIAN",72 Hour Thioglycollate,0.000 ratio
same,"8-iso-F2a (pmol), MEDIAN",72 Hour Thioglycollate,0.000 pmol
same,"8-iso-F2a/AA (ratio), MEDIAN",72 Hour Thioglycollate,0.000 ratio
same,5-oxo-EET (pmol) compared to NS,"72 Tg/4 hour Z, 500 mg/kg oral gavage",significant decrease
same,8-iso-F2α (pmol) compared to NS,[18],significant decrease
same,8-iso-F2α/AA ratio compared to NS,[18],significant decrease
same,AA (pmol) compared to NS,[19],significantly higher
same,LA (pmol) compared to NS,[19],significantly higher
same,5-HETE/AA ratio compared to NS,[20],significant decrease
same,5-oxo-EET (ratio) compared to NS,[20],significant decrease
same,9-HETE/AA ratio compared to NS,[20],significant decrease
same,9-HODE/LA (ratio) compared to NS,[20],significant decrease
same,11-HETE/AA ratio compared to NS,[20],significant decrease
same,AA (pmol) compared to NS,[20],significantly higher
same,LA (pmol) compared to NS,[20],significantly higher
same,PGF2α/AA ratio compared to NS,[20],significant decrease
same,PGF2a/AA (ratio) MEAN,[21],0.033
same,PGF2a/AA (ratio) MEDIAN,[21],0.000
same,Prostaglandin F2α (PGF2α) MEAN,[22],0.036 pmol
same,Prostaglandin F2α (PGF2α) MEDIAN,[22],0.000 pmol
same,13-HODE MEAN,[23],26.618 pmol
same,13-HODE MEDIAN,[23],23.554 pmol
same,11-HETE/AA (ratio) MEAN,[24],0.219
same,11-HETE/AA (ratio) MEDIAN,[24],0.218
same,9-HODE/LA (ratio) MEAN,[25],0.212
same,9-HODE/LA (ratio) MEDIAN,[25],0.168
same,5-HETE/AA (ratio) MEAN,[26],0.129
same,5-HETE/AA (ratio) MEDIAN,[26],0.145
same,13-HODE/AA (ratio) MEAN,[27],2.976
same,13-HODE/AA (ratio) MEDIAN,[27],2.848
same,9-HETE/AA (ratio) MEAN,[28],0.879
same,9-HETE/AA (ratio) MEDIAN,[28],0.887
same,5-HETE MEAN,[29],0.096 pmol
same,5-HETE MEDIAN,[29],0.047 pmol
same,11-HETE MEAN,[29],0.121 pmol
same,11-HETE MEDIAN,[29],0.073 pmol
same,9-HETE MEAN,[30],0.510 pmol
same,9-HETE MEDIAN,[30],0.272 pmol
same,Linoleic Acid MEAN,[31],8239.5 pmol
same,Linoleic Acid MEDIAN,[31],5875.6 pmol
same,9-HODE MEAN,[32],1.791 pmol
same,9-HODE MEDIAN,[32],1.579 pmol
same,Arachidonic Acid MEAN,[33],587.46 pmol
same,Arachidonic Acid MEDIAN,[33],323.65 pmol
same,"5-oxo-ETE (pmol), MEAN",Baseline,0.020 pmol
same,"5-oxo-ETE (ratio), MEAN",Baseline,0.033 ratio
same,"8-iso-F2a (pmol), MEAN",Baseline,0.156 pmol
same,"8-iso-F2a/AA (ratio), MEAN",Baseline,0.307 ratio
same,"5-oxo-ETE (pmol), MEDIAN",Baseline,0.000 pmol
same,"5-oxo-ETE (ratio), MEDIAN",Baseline,0.000 ratio
same,"8-iso-F2a (pmol), MEDIAN",Baseline,0.175 pmol
same,"8-iso-F2a/AA (ratio), MEDIAN",Baseline,0.266 ratio

# Source: patent US7691901B2, “Carotenoid analogs or derivatives for the inhibition and amelioration of inflammation” (Cardax Pharmaceuticals Inc., priority 2004, dated 2010)
